The record followed here is BindingDB's records for doi:10.1021/jm1009154 (University of Copenhagen, 2010).

What is called pIC50 is the IC50 on a negative log10 scale, so that one unit is a factor of ten. Higher therefore signals a low IC50.

pIC50: −log10 of the molar value. Bounds are passed on as bounds.

This assay has as its target Excitatory amino acid transporter 1 (Homo sapiens, UniProt P43003). Put plainly: Inhibition of human EAAT1 expressed in HEK293 cells by [3H]D-Asp uptake assay.

Chain of Excitatory amino acid transporter 1 (P43003 whole entry): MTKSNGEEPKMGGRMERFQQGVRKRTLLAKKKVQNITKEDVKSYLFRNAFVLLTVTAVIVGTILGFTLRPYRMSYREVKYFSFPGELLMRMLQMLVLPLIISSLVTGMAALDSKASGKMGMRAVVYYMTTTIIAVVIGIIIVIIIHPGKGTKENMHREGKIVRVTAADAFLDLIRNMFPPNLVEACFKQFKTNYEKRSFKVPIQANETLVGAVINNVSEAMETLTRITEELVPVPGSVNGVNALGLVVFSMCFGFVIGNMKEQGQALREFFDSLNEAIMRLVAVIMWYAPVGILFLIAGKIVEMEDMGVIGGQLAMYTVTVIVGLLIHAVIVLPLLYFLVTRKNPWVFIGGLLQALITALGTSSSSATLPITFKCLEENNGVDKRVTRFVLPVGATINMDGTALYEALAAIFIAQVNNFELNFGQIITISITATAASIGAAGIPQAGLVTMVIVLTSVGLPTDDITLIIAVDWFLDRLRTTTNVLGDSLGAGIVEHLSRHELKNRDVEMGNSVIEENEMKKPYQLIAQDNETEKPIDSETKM

For `CC1CC(=O)C2=C(C1)OC(=N)C(C#N)C2c1ccc2c(c1)OCO2` (stereo not drawn) [2-amino-4-(benzo[d][1,3]dioxol-5-yl)-7-methyl-5-oxo-5,6,7,8-tetrahydro-4H-chromene-3-carbonitrile], the pIC50 is under 3.50.
As for `N#CC1C(=N)OC2=C(C(=O)O[C@H](c3ccccc3)C2)[C@@H]1c1ccccc1` (relative stereo) [anti-2-Amino-5-oxo-4,7-diphenyl-4,5,7,8-tetrahydropyrano[4,3-b]-pyran-3-carbonitril], the figure is under 3.52.
As for `N#CC1C(=N)OC2=C(C(=O)N[C@H](c3ccccc3)C2)[C@@H]1c1ccccc1` (relative stereo) [anti-2-Amino-5-oxo-4,7-diphenyl-5,6,7,8-tetrahydro-4H-pyrano-[3,2-c]pyridine-3-carbonitrile], the figure is under 3.50.
As for `N#CC1C(=N)OC2=C(C(=O)N[C@@H](c3ccccc3)C2)[C@@H]1c1ccccc1` (relative stereo) [syn-2-amino-5-oxo-4,7-diphenyl-5,6,7,8-tetrahydro-4H-pyrano[3,2-c]pyridine-3-carbonitrile], the figure is under 3.52.
`COC(=O)C1C(=N)OC2=C(C(=O)CC(c3ccccc3)C2)C1c1ccccc1` (stereo not drawn) [Methyl2-Amino-5-oxo-4,7-diphenyl-5,6,7,8-tetrahydro-4Hchromene-3-carboxylate] showed a negative logarithm of the IC50 (pIC50) of under 3.52.
The molecule `N=C1CC(c2ccccc2)C2=C(CC(c3ccccc3)CC2=O)O1` (stereo not drawn) [2-Amino-4,7-diphenyl-7,8-dihydro-4H-chromen-5(6H)-one] showed a pIC50 of under 4.00.
Molecule `N#CC1C(=N)OC2=C(C(=O)O[C@@H](c3ccccc3)C2)[C@@H]1c1ccccc1` (relative stereo) [syn-2-Amino-5-oxo-4,7-diphenyl-4,5,7,8-tetrahydropyrano[4,3-b]-pyran-3-carbonitrile] had a pIC50 of under 3.52.
The molecule `N=C1OC2=C(C(=O)CC(c3ccccc3)C2)C(c2ccccc2)C1C(N)=O` (stereo not drawn) [2-Amino-5-oxo-4,7-diphenyl-5,6,7,8-tetrahydro-4H-chromene-3-carboxamide] had a pIC50 of under 4.00.
